According to PubChem BioAssay (NCI):
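A five-concentration, 48-hour dose response in 96-well plates underlies each endpoint, interpolated linearly between surrounding concentrations. GI50 = concentration required for 50% inhibition of growth. TGI marks complete inhibition of growth.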

Columns and labels:
Assay in all cases: DTP human tumour cell line panel, 48 h
SK-MEL-5 melanoma = test system: SK-MEL-5 melanoma
MALME-3M melanoma = test system: MALME-3M melanoma
UACC-62 melanoma = test system: UACC-62 melanoma
RPMI-8226 leukemia = test system: RPMI-8226 leukemia
A549 NSCLC = test system: A549 NSCLC
IGROV1 ovarian = test system: IGROV1 ovarian
COLO 205 colon = test system: COLO 205 colon
SNB-19 CNS = test system: SNB-19 CNS
OVCAR-5 ovarian = test system: OVCAR-5 ovarian
SW-620 colon = test system: SW-620 colon

Row | Compound | TGI (SK-MEL-5 melanoma) | TGI (MALME-3M melanoma) | TGI (UACC-62 melanoma) | TGI (RPMI-8226 leukemia) | TGI (A549 NSCLC) | TGI (IGROV1 ovarian) | TGI (COLO 205 colon) | TGI (SNB-19 CNS) | TGI (OVCAR-5 ovarian) | TGI (SW-620 colon) | GI50 (SK-MEL-5 melanoma) | GI50 (MALME-3M melanoma) | GI50 (UACC-62 melanoma) | GI50 (RPMI-8226 leukemia) | GI50 (A549 NSCLC) | GI50 (IGROV1 ovarian) | GI50 (COLO 205 colon) | GI50 (SNB-19 CNS) | GI50 (OVCAR-5 ovarian) | GI50 (SW-620 colon)
1 | CCOc1cc[n+](C(=C=[N-])C#N)cc1 | > 100 µM | > 100 µM | > 100 µM | > 100 µM | > 100 µM | > 100 µM | > 100 µM | > 100 µM | > 100 µM | > 100 µM |  |  |  |  |  |  |  |  |  | 
2 | C[C@H](c1ccc(Cl)cc1[N+](=O)[O-])N1C(=O)c2cc(I)ccc2NC(=O)[C@H]1c1ccc(Cl)cc1 | > 100 µM | > 100 µM | > 100 µM | > 100 µM | > 100 µM | > 100 µM | > 100 µM | > 100 µM | > 100 µM | > 100 µM | > 100000 nM | > 100 µM | > 100 µM | > 100 µM | 6.01 µM | 8.21 µM | > 100000 nM | > 100 µM | > 100 µM | > 100 µM
3 | O=C(O)CSc1nnc2c3ccccc3c3ccccc3c2n1 | > 100 µM | > 100 µM | > 100 µM | 99.4 µM | > 100 µM | > 100 µM | > 100 µM | > 100 µM | > 100 µM | > 100 µM |  |  |  |  |  |  |  |  |  | 
4 | COc1cc[nH]c1/C=C1\C(=O)Nc2ccc([N+](=O)[O-])c(N3CC[C@@H](O)C3)c21 | 0.847 µM | 1.97 µM | 0.762 µM | 1.14 µM | 2.18 µM | 4.27 µM | 0.688 µM | 5.68 µM | 3.97 µM | 9.49 µM | 181 nM | 0.921 µM | 0.338 µM | 0.296 µM | 0.167 µM | 0.467 µM | 135 nM | 0.495 µM | 0.258 µM | 0.205 µM
5 | C(=NCCN=Cc1cccc2ccccc12)c1cccc2ccccc12 | > 100 µM | > 100 µM | > 100 µM | > 100 µM | > 100 µM | > 100 µM | > 100 µM | > 100 µM | > 100 µM | > 100 µM |  |  |  |  |  |  |  |  |  | 
6 | CC1SC(c2cccc(Cl)c2)N(NC(=O)C(O)c2ccccc2)C1=O (stereo not given) | > 100 µM | > 100 µM | > 100 µM | > 100 µM | > 100 µM | > 100 µM | > 100 µM | > 100 µM | > 100 µM | > 100 µM | > 100000 nM | > 100 µM | 39 µM | 43.2 µM | 86.7 µM | 68.7 µM | > 100000 nM | > 100 µM | > 100 µM | > 100 µM
7 | CC(=O)Nc1ccc(OCC(O)CO)cc1 (stereo not given) | > 100 µM | > 100 µM | > 100 µM | 43.9 µM | > 100 µM | > 100 µM | > 100 µM | > 100 µM | > 100 µM | 21.6 µM |  |  |  |  |  |  |  |  |  | 
8 | COC(=O)[C@]1(C)CC[C@]2(C)CC[C@]3(C)C(=CC(=O)[C@@H]4[C@@]5(C)CCC(=O)NC(C)(C)[C@@H]5CC[C@]43C)[C@@H]2C1 | 28.9 µM | 38 µM | 38.2 µM | 34.7 µM | > 100 µM | > 100 µM | 50.4 µM | > 100 µM | 38.9 µM | > 100 µM | 14700 nM | 18.3 µM | 15.3 µM | 12 µM | 32.8 µM | 26.7 µM | 17100 nM | 29 µM | 21.3 µM | 27.3 µM
9 | NC(N)=N/N=C/c1ccc(Br)cc1 | 9.28 µM | 22.7 µM | 17.8 µM | > 100 µM | 23.4 µM | 24.2 µM | 7.21 µM | 24.2 µM | 24.9 µM | 15.9 µM | 2360 nM | 10.1 µM | 5.36 µM | 11.6 µM | 6.46 µM | 4.91 µM | 2990 nM | 5.74 µM | 10.4 µM | 3.8 µM
10 | COc1ccc(-c2cc3c(N)ncnc3o2)cc1 | > 25 µM | > 25 µM | > 25 µM | > 25 µM | > 25 µM | > 25 µM | > 25 µM | > 25 µM | > 25 µM | > 25 µM | > 22400 nM | 15.5 µM | 5.72 µM | > 25 µM | > 25 µM | 24.3 µM | > 25000 nM | > 25 µM | > 25 µM | > 25 µM
11 | CSc1nc(-c2cccc(NC(=O)CCl)c2)c(C#N)c(=O)n1C | 2.74 µM | 2.66 µM | 3.73 µM | 4.88 µM | 17.4 µM | 1.41 µM | 3.94 µM | 3.29 µM | 3.38 µM | 3.44 µM | 1330 nM | 1.17 µM | 1.5 µM | 1.75 µM | 3.28 µM | 0.248 µM | 1700 nM | 1.63 µM | 1.83 µM | 1.51 µM
12 | O=C1CC2OCC=C3CN4CCC56c7ccccc7N1C5C2C3CC46 (stereo not given) (tested in a mixture with another compound) | > 50 µg/mL | > 50 µg/mL | > 50 µg/mL | > 50 µg/mL | > 50 µg/mL | > 50 µg/mL | > 50 µg/mL | > 50 µg/mL | > 50 µg/mL | > 50 µg/mL | > 50 µg/mL | > 50 µg/mL | > 50 µg/mL | > 50 µg/mL | > 50 µg/mL | > 50 µg/mL | > 50 µg/mL | > 50 µg/mL | > 50 µg/mL | > 50 µg/mL
13 | O=S1Cc2ccccc2CSS1 (stereo not given) | 26.3 µM | 26.2 µM | 26.5 µM | 39.8 µM | 46.7 µM | > 100 µM | 27.3 µM | > 100 µM | 37.4 µM | 27.2 µM |  |  |  |  |  |  |  |  |  | 
14 | COc1cc(OC)c2c(c1Cl)O[C@]1(C2=O)C(OCc2ccccc2)=CC(=O)C[C@H]1C | 11.8 µM | 55.8 µM | 18.6 µM | 17 µM | > 100 µM | 79.6 µM | 1.69 µM | 98.8 µM | > 100 µM | > 100 µM | 1150 nM | 12 µM | 0.72 µM | 1.13 µM | 0.769 µM | 2.79 µM | 430 nM | 5.68 µM | 1.83 µM | 0.641 µM
